Data published in the supplement of paper PMC10307832.

What was measured:
Assay in all cases: relative viability (nuclei count vs DMSO), 5 days (fraction); higher = more cells survive
[1] = compound: Cc1cc(Nc2cc(N3CCN(C)CC3)nc(Sc3ccc(NC(=O)C4CC4)cc3)n2)n[nH]1 [Tozasertib] + CS(=O)(=O)CCNCc1ccc(-c2ccc3ncnc(Nc4ccc(OCc5cccc(F)c5)c(Cl)c4)c3c2)o1 [Lapatinib] (partner 2 µM)
In short: (§1)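 Relative viability was taken as the ratio of nuclei in treated wells to nuclei in vehicle wells. Lung cancer cell lines in 1536-well plates received compounds by pin tool one day after seeding, either one drug alone or a fixed anchor-drug dose plus five library-drug doses (not always all listed) in √10 steps. Nuclei were counted on 4× images after 5 days of treatment, and values are medians of duplicate plates.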

[2] = compound: Cc1cc(Nc2cc(N3CCN(C)CC3)nc(Sc3ccc(NC(=O)C4CC4)cc3)n2)n[nH]1 [Tozasertib] + CS(=O)(=O)N1CCN(Cc2cc3nc(-c4cccc5[nH]ncc45)nc(N4CCOCC4)c3s2)CC1 [Pictilisib] (partner 1 µM)
In short: as §1

[3] = compound: Cc1cc(Nc2cc(N3CCN(C)CC3)nc(Sc3ccc(NC(=O)C4CC4)cc3)n2)n[nH]1 [Tozasertib] + Cc1nc(NC(=O)N2CCC[C@H]2C(N)=O)sc1-c1ccnc(C(C)(C)C(F)(F)F)c1 [Alpelisib] (partner 2 µM)
In short: as §1

[4] = compound: Cc1cc(Nc2cc(N3CCN(C)CC3)nc(Sc3ccc(NC(=O)C4CC4)cc3)n2)n[nH]1 [Tozasertib] + NC(=O)Nc1cc(-c2cccc(F)c2)sc1C(=O)N[C@H]1CCCNC1 [AZD7762] (partner 0.2 µM)
In short: as §1

Row | Cell Line | relative viability ([1]; first compound 0.01265 µM) | relative viability ([1]; first compound 0.1265 µM) | relative viability ([2]; first compound 0.004 µM) | relative viability ([2]; first compound 0.01265 µM) | relative viability ([2]; first compound 0.04 µM) | relative viability ([2]; first compound 0.1265 µM) | relative viability ([3]; first compound 0.004 µM) | relative viability ([3]; first compound 0.01265 µM) | relative viability ([3]; first compound 0.04 µM) | relative viability ([3]; first compound 0.1265 µM) | relative viability ([4]; first compound 0.004 µM) | relative viability ([4]; first compound 0.01265 µM) | relative viability ([4]; first compound 0.04 µM) | relative viability ([4]; first compound 0.1265 µM) | relative viability ([1]; first compound 0.004 µM) | relative viability ([1]; first compound 0.04 µM)
1 | NCI-H1755 | 1.01 | 0.882 | 0.422 | 0.395 | 0.444 | 0.232 | 0.518 | 0.908 | 0.948 | 0.629 | 0.46 | 0.432 | 0.406 | 0.445 | – | –
2 | NCI-H2347 | 1.01 | 0.763 | 0.723 | 0.763 | 0.648 | 0.389 | 0.996 | 1.09 | 0.871 | 0.963 | 0.686 | 0.686 | 0.835 | 0.75 | 1.06 | 0.953
3 | NCI-H647 | 0.989 | 0.235 | 0.442 | – | 0.476 | 0.171 | 1.43 | 0.915 | 1.06 | 0.371 | 0.567 | 0.418 | 0.43 | 0.0736 | 1.13 | 0.895
4 | ABC-1 | 1.04 | 1.24 | 0.782 | – | 0.625 | 0.291 | 0.916 | 1.06 | 0.721 | 0.816 | 1.01 | 0.789 | – | 1.16 | 1.26 | 1.13
5 | HCC-78 | 0.58 | 0.643 | 0.235 | 0.203 | 0.202 | 0.171 | 0.38 | 0.305 | 0.46 | 0.241 | 0.806 | 0.519 | 0.668 | 0.477 | 0.985 | –
6 | NCI-H1355 | 1.02 | 0.791 | 0.426 | 0.461 | 0.52 | 0.272 | 0.851 | 0.804 | 0.96 | 0.78 | 0.76 | 0.698 | 0.77 | 0.661 | 0.934 | 0.987
7 | NCI-H2087 | 1.06 | 0.805 | 0.928 | 0.885 | 0.933 | 0.714 | 1.08 | 1.01 | 1.21 | 0.913 | 1.13 | 1.24 | 1.33 | 1.01 | 1.14 | 1.05
8 | NCI-H3122 | 0.992 | 1.04 | 0.626 | 0.49 | 0.656 | 0.61 | 0.808 | 0.809 | 0.847 | 0.749 | 1 | 0.952 | 1.06 | 1.07 | 0.974 | 1.02
9 | CAL-12T | 0.596 | 0.414 | 0.472 | 0.386 | 0.414 | 0.171 | 1.31 | 1.23 | 1.33 | 1.08 | 0.563 | 0.553 | 0.545 | 0.494 | 0.651 | 0.626
10 | LOU-NH91 | 0.742 | 0.638 | 0.541 | 0.526 | 0.513 | 0.48 | – | 0.736 | 0.731 | 0.694 | 0.733 | 0.719 | 0.838 | 0.64 | 0.789 | 0.803
11 | NCI-H1666 | 0.489 | 0.298 | 0.455 | 0.412 | 0.586 | 0.305 | 1.06 | 0.976 | 0.973 | 0.632 | 0.941 | 0.761 | 0.903 | 0.671 | 0.61 | 0.578
12 | NCI-H1975 | 0.876 | 0.429 | 0.323 | 0.278 | 0.295 | 0.238 | 0.747 | 0.749 | 0.763 | 0.586 | 0.93 | 0.672 | 0.727 | 0.612 | 0.886 | 0.903
13 | NCI-H1651 | 0.806 | 0.392 | 0.655 | 0.62 | 0.634 | 0.377 | 0.922 | 1.01 | 0.886 | 1.03 | 0.469 | 0.464 | 0.498 | 0.422 | 0.973 | –
14 | NCI-H23 | 0.96 | 0.269 | 0.566 | 0.555 | 0.541 | 0.337 | 0.638 | 0.578 | 0.781 | 0.361 | 0.199 | 0.259 | 0.216 | 0.186 | 1.1 | 0.989
15 | LXF-289 | 0.846 | 0.722 | 0.835 | 0.828 | 0.778 | 0.789 | – | 1.05 | 0.955 | 0.615 | 1.12 | 1.02 | 1.04 | 0.619 | 0.956 | 0.823
16 | NCI-H1915 | 0.968 | 0.688 | 1.06 | 0.862 | 0.872 | 0.635 | 1.07 | 1.04 | 1.02 | 0.95 | 0.75 | 0.718 | 0.659 | 0.493 | 1.05 | 0.897
17 | NCI-H1703 | 0.918 | 0.301 | 0.287 | 0.221 | 0.248 | 0.23 | 0.364 | 0.357 | 0.445 | 0.209 | 0.0927 | – | 0.126 | 0.12 | 1.4 | 1.11
18 | NCI-H596 | 1.07 | 0.49 | 0.399 | 0.395 | 0.395 | 0.332 | – | 0.451 | 0.519 | 0.439 | – | – | 1.2 | 0.871 | 1.17 | 1.11
19 | PC-3 [JPC-3] | 0.46 | 0.33 | 0.657 | 0.724 | 0.732 | 0.598 | 0.835 | 1.03 | 1.03 | 0.959 | 0.789 | 0.734 | 0.774 | 0.684 | 0.45 | 0.529
20 | NCI-H2405 | 0.962 | 0.705 | 0.386 | 0.478 | 0.479 | 0.396 | 0.723 | 0.812 | 0.778 | 0.807 | 0.753 | – | 0.612 | 0.547 | 1.05 | 0.793
21 | NCI-H1993 | 0.82 | 0.772 | – | 0.759 | – | 0.632 | 0.63 | 0.795 | 0.727 | 0.519 | 0.708 | 0.761 | 0.837 | 0.542 | 0.804 | 0.829
22 | LC-2-ad | 0.884 | 0.509 | 0.505 | 0.516 | 0.427 | 0.127 | 0.881 | 0.82 | 1.02 | 0.354 | 0.868 | 0.763 | 0.915 | 0.731 | 1.01 | 0.97
23 | RERF-LC-KJ | 0.838 | 0.804 | 0.503 | 0.594 | 0.597 | 0.456 | 0.897 | 0.761 | 0.914 | 0.599 | 1.08 | – | 1.06 | 0.371 | 0.86 | 0.925
24 | H3255 | 0.229 | 0.228 | – | 0.463 | 0.533 | 0.413 | 0.592 | 0.654 | 0.762 | 0.658 | 0.837 | 0.786 | 0.884 | 0.684 | 0.256 | 0.236
25 | NCI-H650 | 0.844 | 0.454 | 0.917 | 0.813 | 0.823 | 0.756 | 1.23 | 1.06 | – | – | 0.935 | 1.07 | 0.797 | 1.05 | 1.05 | 0.991
26 | NCI-H727 | – | 0.442 | 0.357 | 0.354 | 0.391 | 0.299 | 0.739 | 0.554 | 0.639 | 0.482 | 0.446 | 0.481 | 0.716 | 0.455 | 0.959 | 0.942
